Results published in ChEMBL document CHEMBL4651402, “Screening of ~5500 FDA-approved drugs and clinical candidates for anti-SARS-CoV-2 activity” (2021).
pIC50: −log10 of the molar value.

Tested on: SARS-CoV-2
Assay: microbe, parasite or virus in culture
Conditions: Severe acute respiratory syndrome coronavirus 2, Vero C1008, 48 h; for IC50: read-out: pIC50 (converted)

SMILES	pIC50	IC50
CCC[C@H](c1ccc(C(=O)NCCC(=O)O)cc1)[C@@H](c1ccc(Cl)cc1)c1c[nH]c2c(F)cc(C)cc12	< 4.70	> 20 µM
N=C(N)NCCC[C@H](NC(=O)c1ccc2ccccc2c1O)C(=O)N1CCC[C@H]1C(N)=O	< 4.70	> 20 µM
CC[C@H]1CN2CCc3cc(OC)c(OC)cc3[C@@H]2C[C@@H]1C[C@H]1NCCc2cc(O)c(OC)cc21 [CEPHAELINE]	< 4.70	> 20 µM
CCc1cc(C(N)=S)ccn1 [ETHIONAMIDE]	< 4.70	> 20 µM
CCCC(=O)c1cc(F)ccc1OCC(O)CNC(C)(C)C (stereo not given) [BUTOFILOLOL]	< 4.70	> 20 µM
C[C@H]1C[C@H]2[C@@H]3CCC4=CC(=O)C=C[C@]4(C)[C@@]3(Cl)[C@@H](O)C[C@]2(C)[C@@]1(O)C(=O)CO [BECLOMETHASONE]	< 4.70	> 20 µM
CCCCCc1ccc(C)cc1O [AMYLMETACRESOL]	< 4.70	> 20 µM
c1ccc2c(c1)CN1CCCC1=N2	< 4.70	> 20 µM
[2H]C1([2H])[C@H]2C[C@@H](Oc3ccc(C(F)(F)F)cn3)[C@H](C2)N1C(=O)c1cccc(F)c1-c1ncccn1 [TEBIDEUTOREXANT]	< 4.70	> 20 µM
CCOC(=O)n1ccn(C)c1=S [CARBIMAZOLE]	< 4.70	> 20 µM
CC[C@@H](Nc1c(Nc2cccc(C(=O)N(C)C)c2O)c(=O)c1=O)c1ccc(C)o1 [NAVARIXIN ANHYDROUS]	< 4.70	> 20 µM
C[C@]1(O)C[C@@H](c2nc(-c3ccc4ccc(-c5ccccc5)nc4c3)c3c(N)nccn32)C1 [LINSITINIB]	< 4.70	> 20 µM
Cc1ncc(CSSCc2cnc(C)c(O)c2CO)c(CO)c1O [PYRITINOL]	< 4.70	> 20 µM
CO[C@@]1(NC(=O)CSCC#N)C(=O)N2C(C(=O)O)=C(CSc3nnnn3C)CS[C@@H]21 [CEFMETAZOLE]	< 4.70	> 20 µM
O=C1NC(=O)C(=O)C(=O)N1 [ALLOXAN]	< 4.70	> 20 µM
CN(C)CC#CC=C1c2ccccc2C=Cc2ccccc21 [INTRIPTYLINE]	< 4.70	> 20 µM
COc1ncnc(NS(=O)(=O)c2ccc(N)cc2)c1OC [SULFADOXINE]	< 4.70	> 20 µM
O=C(NCc1ccccc1)OCCO [BURAMATE]	< 4.70	> 20 µM
CC(C)C(=O)OC[C@H]1O[C@@H](n2ccc(N)nc2=O)[C@](C)(F)[C@@H]1OC(=O)C(C)C [MERICITABINE]	< 4.70	> 20 µM
COc1cccc(C(=O)CCNC(C)C(O)c2ccccc2)c1 (stereo not given)	< 4.70	> 20 µM
Cc1cccc(Cc2c[nH]cn2)c1C [DETOMIDINE]	< 4.70	> 20 µM
COc1ccc2c(c1)[nH]c1c(C)nccc12 [HARMINE]	< 4.70	> 20 µM
CN1C(=O)CN=C(c2ccccc2F)c2cc([N+](=O)[O-])ccc21 [FLUNITRAZEPAM]	< 4.70	> 20 µM
Cc1cc(C)cc(OCC2CNC(=O)O2)c1 (stereo not given) [METAXALONE]	< 4.70	> 20 µM

SMILES	pIC50	IC50
Cn1c(Nc2ccc(C(F)(F)F)cc2)nc2cc(Oc3ccnc(-c4ncc(C(F)(F)F)[nH]4)c3)ccc21 [RAF-265]	< 4.70	> 20 µM
O=C(CCCN1CCN(c2ccccn2)CC1)c1ccc(F)cc1 [AZAPERONE]	< 4.70	> 20 µM
O=[N+]([O-])/N=C1\NCCN1Cc1ccc(Cl)nc1 [IMIDACLOPRID]	< 4.70	> 20 µM
O=C(CN1CCNCC1)NC1CCCCC1 [ESAPRAZOLE]	< 4.70	> 20 µM
CCCOc1ccc2[nH]c(NC(=O)OC)nc2c1 [OXIBENDAZOLE]	< 4.70	> 20 µM
CCCOc1ccccc1-c1nc2[nH]nnc2c(=O)[nH]1 [ZAPRINAST]	< 4.70	> 20 µM
COc1ccc(CCN)cc1OC	< 4.70	> 20 µM
CC(=O)c1ccc2c(c1)C(=O)C1(CC1)O2 [SPIZOFURONE]	< 4.70	> 20 µM
Cc1cc(CCCOc2c(C)cc(-c3noc(C(F)(F)F)n3)cc2C)on1 [PLECONARIL]	< 4.70	> 20 µM
COc1ccccc1Oc1c(NS(=O)(=O)c2ccc(C)cn2)nc(-c2ccncc2)nc1OC [AVOSENTAN]	< 4.70	> 20 µM
CC[C@H]1OC(=O)[C@H](C)C(=O)[C@H](C)[C@@H](O[C@@H]2O[C@H](C)C[C@H](N(C)C)[C@H]2O)[C@](C)(OC)C[C@@H](C)C(=O)[C@H](C)[C@@H]2N(CCCCn3cnc(-c4cccnc4)c3)C(=O)O[C@@]21C	< 4.70	> 20 µM
O=C(N/N=C/c1ccc([N+](=O)[O-])o1)c1ccc(O)cc1 [NIFUROXAZIDE]	< 4.70	> 20 µM
CC/C(=C(\c1ccc(O)cc1)c1ccc(OCCN(C)C)cc1)c1ccccc1 [AFIMOXIFENE]	< 4.70	> 20 µM
CCN(CC)CCOC(=O)C(Cc1cccc2ccccc12)CC1CCCO1 (stereo not given) [NAFRONYL]	< 4.70	> 20 µM
Cc1c(Cn2ccnc2)c2ccccc2n1CCC(=O)O [DAZMEGREL]	< 4.70	> 20 µM
CCc1nc2c(C)nc(C)cc2n1-c1ccc(CCNC(=O)NS(=O)(=O)c2ccc(C)cc2)cc1 [GRAPIPRANT]	< 4.70	> 20 µM
CC(C)(C)NCC(O)COc1cccc2c1C(=O)OC2 (stereo not given) [AFUROLOL]	< 4.70	> 20 µM
Oc1ccc(Cl)cc1Cc1cc(Cl)ccc1O [DICHLOROPHEN]	< 4.70	> 20 µM
CC1(C)C2=CCC3C(CCC4(C)C3CC[C@]4(C)O)C2(C)Cc2cnoc21 (stereo not given in full)	< 4.70	> 20 µM
CN1C[C@H](C(=O)N[C@]2(C)O[C@@]3(O)[C@@H]4CCCN4C(=O)[C@H](Cc4ccccc4)N3C2=O)C=C2c3cccc4[nH]cc(c34)C[C@H]21 [ERGOTAMINE]	< 4.70	> 20 µM
CCN1c2ncc(CCOc3cc[n+]([O-])c4ccccc34)cc2C(=O)N(C)c2cccnc21 [BILR 355]	< 4.70	> 20 µM
CCC1(c2c[nH]cn2)Cc2ccccc2C1 [ATIPAMEZOLE]	< 4.70	> 20 µM
c1ccc(CNc2ncnc3[nH]cnc23)cc1 [6-BENZYLAMINOPURINE]	< 4.70	> 20 µM
CC(=O)OCC(CCn1cnc2cnc(N)nc21)COC(C)=O [FAMCICLOVIR]	< 4.70	> 20 µM

SMILES	pIC50	IC50
Nc1ccn([C@@H]2CS[C@H](CO)O2)c(=O)n1 [LAMIVUDINE]	< 4.30	> 50.1 µM
CO[C@H]1C[C@@H]2CC[C@@H](C)[C@@](O)(O2)C(=O)C(=O)N2CCCC[C@H]2C(=O)O[C@H]([C@H](C)C[C@@H]2CC[C@@H](OP(C)(C)=O)[C@H](OC)C2)CC(=O)[C@H](C)/C=C(/C)[C@@H](O)[C@@H](OC)C(=O)[C@H](C)C[C@H](C)\C=C/C=C\C=C/1C	< 4.70	> 20 µM
COc1ccc([C@@H]2Sc3ccccc3N(CCN(C)C)C(=O)[C@@H]2OC(C)=O)cc1 [DILTIAZEM]	< 4.70	> 20 µM
CCC(C)(C)C(=O)O[C@H]1C[C@@H](C)C=C2C=C[C@H](C)[C@H](CC[C@@H]3C[C@@H](O)CC(=O)O3)[C@H]21 [SIMVASTATIN]	< 4.70	> 20 µM
O=C(O)c1cn(-c2ccc(F)cc2)c2cc(N3CCNCC3)c(F)cc2c1=O [SARAFLOXACIN]	< 4.70	> 20 µM
C=CC(C)(C)c1cc(/C=C/C(=O)c2ccc(O)cc2)c(OC)cc1O [LICOAGROCHACONE A]	< 4.70	> 20 µM
COc1cc(/C=C/c2ccc(O)cc2)cc(OC)c1 [PTEROSTILBENE]	< 4.70	> 20 µM
O=C(Nc1c[nH]nc1-c1nc2ccc(CN3CCOCC3)cc2[nH]1)NC1CC1 [AT-9283]	< 4.70	> 20 µM
[N-]=[N+]=N[C@]1(CO)O[C@@H](n2ccc(N)nc2=O)[C@@H](F)[C@@H]1O [RO-0622]	< 4.70	> 20 µM
COc1cc([C@H]2Oc3cc([C@H]4Oc5cc(O)cc(O)c5C(=O)[C@@H]4O)ccc3O[C@@H]2CO)ccc1O [SILYBIN A]	< 4.70	> 20 µM
NC(=O)Oc1ccc(Cc2ccccc2)cc1	< 4.70	> 20 µM
Cc1ncc(CO)c(C=O)c1O [PYRIDOXAL]	< 4.70	> 20 µM
CN(C(=O)CNC(=O)CN)c1ccc(Cl)cc1C(=O)c1ccccc1Cl [LORZAFONE ANHYDROUS]	< 4.70	> 20 µM
CCCC1(CCC)CCC2(CCN(CCCN(CC)CC)C2)CC1 [ATIPRIMOD]	< 4.70	> 20 µM
C[C@H]1CC[C@]2(NC1)O[C@H]1C[C@H]3[C@@H]4CC[C@H]5C[C@@H](O)CC[C@]5(C)[C@H]4CC[C@]3(C)[C@H]1[C@@H]2C [TOMATIDINE]	< 4.70	> 20 µM
CC(C)NCC(O)COc1cccc2[nH]ccc12 (stereo not given) [PINDOLOL]	< 4.70	> 20 µM
C[C@@H]1[C@H](O)[C@@H](C)\C=C/C=C\C=C/C=C\C=C/C=C\C=C/[C@H](O[C@@H]2O[C@H](C)[C@@H](O)[C@H](N)[C@@H]2O)C[C@@H]2O[C@](O)(C[C@@H](O)C[C@@H](O)[C@H](O)CC[C@@H](O)C[C@@H](O)CC(=O)O[C@H]1C)C[C@H](O)[C@H]2C(=O)O	< 4.70	> 20 µM
O=C(O)c1ccccc1O [SALICYLIC ACID]	< 4.70	> 20 µM
C[C@@H](O)[C@H]1C(=O)N2C(C(=O)O)=C(S[C@@H]3CN[C@H](C(=O)N(C)C)C3)[C@H](C)[C@H]12 [MEROPENEM]	< 4.70	> 20 µM
Nc1cc(C(F)(F)F)c(-c2nc(N3CCOCC3)nc(N3CCOCC3)n2)cn1 [BIMIRALISIB]	< 4.70	> 20 µM
Cc1cnc2c(c1)CCCC2C(N)=S (stereo not given) [TIQUINAMIDE]	< 4.70	> 20 µM
O=C(O)Cc1sc(-c2ccccc2)nc1-c1ccc(Cl)cc1 [FENTIAZAC]	< 4.70	> 20 µM
